Measurements taken from ChEMBL document CHEMBL4808251, “Preparation, biological & cheminformatics-based assessment of N2,N4-diphenylpyrimidine-2,4-diamine as potential Kinase-targeted antimalarials” (Bioorg Med Chem, 2021).
In brackets after ≈: the same amount, converted by molar mass.

How the values were obtained:
Plasmodium falciparum = test: Antimalarial activity against chloroquine-sensitive plasmodium falciparum 3D7 infected in human erythrocytes assessed as parasite growth inhibition measured after 72 hrs by SYBR green dye based fluorescence analysis; format: functional, organism-based; conditions: 3D7, Erythrocyte
[1] = Cytotoxicity against human HepG2 cells assessed as inhibition of cell viability relative to control; format: cell-based; conditions: read-out: INH
[2] = Selectivity index, ratio of IC50 for cytotoxicity against human HepG2 cells to IC50 for antimalarial activity against chloroquine-sensitive plasmodium falciparum 3D7 infected in human erythrocytes; format: toxicity, cell-based; conditions: read-out: Ratio IC50
HepG2 = test: Cytotoxicity against human HepG2 cells assessed as inhibition of cell growth measured after 72 hrs by resazurin dye based fluorescence assay; conditions: HepG2, 72 h
[3] = target: T1, JAK3 (Tyrosine-protein kinase JAK3) (Homo sapiens, UniProt P52333); test: Inhibition of human JAK3 at 1 uM measured after 30 mins by [gamma-33P]-ATP assay
T1 sequence (P52333 whole entry): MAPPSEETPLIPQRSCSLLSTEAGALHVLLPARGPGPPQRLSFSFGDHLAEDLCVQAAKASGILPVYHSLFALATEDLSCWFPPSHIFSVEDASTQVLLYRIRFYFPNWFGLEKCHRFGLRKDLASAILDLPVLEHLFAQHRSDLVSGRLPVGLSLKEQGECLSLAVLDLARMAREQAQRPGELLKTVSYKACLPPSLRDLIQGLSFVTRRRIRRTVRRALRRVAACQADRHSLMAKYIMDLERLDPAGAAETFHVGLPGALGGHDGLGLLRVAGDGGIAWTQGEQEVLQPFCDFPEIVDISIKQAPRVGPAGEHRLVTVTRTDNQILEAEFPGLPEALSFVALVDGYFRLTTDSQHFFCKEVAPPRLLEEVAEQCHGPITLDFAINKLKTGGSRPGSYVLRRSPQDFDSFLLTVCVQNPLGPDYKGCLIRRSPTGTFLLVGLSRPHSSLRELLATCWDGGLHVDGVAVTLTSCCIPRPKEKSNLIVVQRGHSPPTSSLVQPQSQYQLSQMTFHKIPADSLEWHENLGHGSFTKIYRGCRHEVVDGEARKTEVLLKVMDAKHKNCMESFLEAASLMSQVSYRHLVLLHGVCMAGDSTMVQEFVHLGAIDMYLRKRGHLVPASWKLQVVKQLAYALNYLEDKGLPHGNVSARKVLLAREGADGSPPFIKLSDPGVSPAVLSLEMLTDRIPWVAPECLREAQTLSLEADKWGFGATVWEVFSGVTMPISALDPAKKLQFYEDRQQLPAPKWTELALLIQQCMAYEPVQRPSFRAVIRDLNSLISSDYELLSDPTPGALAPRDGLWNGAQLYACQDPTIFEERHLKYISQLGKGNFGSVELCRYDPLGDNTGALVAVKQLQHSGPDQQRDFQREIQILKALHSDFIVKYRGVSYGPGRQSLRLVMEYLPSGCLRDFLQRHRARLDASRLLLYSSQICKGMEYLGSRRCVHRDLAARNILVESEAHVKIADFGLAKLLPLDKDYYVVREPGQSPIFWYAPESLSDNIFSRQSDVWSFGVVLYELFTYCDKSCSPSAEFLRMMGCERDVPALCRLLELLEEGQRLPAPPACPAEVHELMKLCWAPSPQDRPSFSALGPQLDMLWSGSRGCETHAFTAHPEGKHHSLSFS

[4] = target: PIM1 (Serine/threonine-protein kinase pim-1) (Homo sapiens, UniProt P11309); test: Inhibition of human PIM1 at 1 uM measured after 30 mins by [gamma-33P]-ATP assay
[5] = target: ERK1 (Mitogen-activated protein kinase 3) (Homo sapiens, UniProt P27361); test: Inhibition of human ERK1 at 1 uM measured after 30 mins by [gamma-33P]-ATP assay
[6] = 1-octanol/water partition coefficient, logD of the compound at pH 7.4 measured after 6 hrs by shake flask technique based HPLC-UV analysis; format: physicochemical
[7] = target: MEKK1 (Mitogen-activated protein kinase kinase kinase 1) (Homo sapiens, UniProt Q13233); test: Inhibition of human MEKK1 at 1 uM measured after 30 mins by [gamma-33P]-ATP assay
Aurora kinase A = target: T2, Aurora kinase A (Homo sapiens, UniProt O14965); test: Inhibition of human Aurora A at 1 uM measured after 30 mins by [gamma-33P]-ATP assay
T2 sequence (O14965 whole entry): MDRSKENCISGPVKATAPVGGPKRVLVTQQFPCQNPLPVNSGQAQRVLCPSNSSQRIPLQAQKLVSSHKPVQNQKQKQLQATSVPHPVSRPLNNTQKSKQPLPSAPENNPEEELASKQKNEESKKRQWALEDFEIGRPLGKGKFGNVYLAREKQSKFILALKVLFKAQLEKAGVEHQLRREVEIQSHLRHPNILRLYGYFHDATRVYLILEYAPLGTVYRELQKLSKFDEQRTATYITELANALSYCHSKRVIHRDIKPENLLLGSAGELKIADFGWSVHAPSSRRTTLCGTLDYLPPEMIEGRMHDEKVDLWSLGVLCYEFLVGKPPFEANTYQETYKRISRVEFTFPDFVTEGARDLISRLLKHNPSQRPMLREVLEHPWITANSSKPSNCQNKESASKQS

[8] = target: HER4 (Receptor tyrosine-protein kinase erbB-4) (Homo sapiens, UniProt Q15303); test: Inhibition of human HER4 at 1 uM measured after 30 mins by [gamma-33P]-ATP assay
[9] = Aqueous solubility of compound in PBS at pH 7.4 by HPLC-UV analysis; format: physicochemical
[10] = target: VEGFR1 (Vascular endothelial growth factor receptor 1) (Homo sapiens, UniProt P17948); test: Inhibition of human VEGFR1 at 1 uM measured after 30 mins by [gamma-33P]-ATP assay; conditions: human VEGFR1 kinase
[11] = target: JNK1 (Mitogen-activated protein kinase 8) (Homo sapiens, UniProt P45983); test: Inhibition of human JNK1 at 1 uM measured after 30 mins by [gamma-33P]-ATP assay
[12] = target: CDK2 (Cyclin-dependent kinase 2) (Homo sapiens, UniProt P24941); test: Inhibition of human CDK2 at 1 uM measured after 30 mins by [gamma-33P]-ATP assay
[13] = Intrinsic clearance in human liver microsomes at 0.5 uM in the presence of NADPH measured upto 30 mins by UPLC-MS/MS analysis; format: ADME, Microsome; conditions: 0.5 h
[14] = Effective permeability of the compound in PBS at pH 7.4 at 10 uM incubated for 5 hrs by PAMPA based UPLC-MS/MS analysis; format: ADME; conditions: read-out: permeability

PIM1 (Serine/threonine-protein kinase pim-1), sequence (P11309 whole entry): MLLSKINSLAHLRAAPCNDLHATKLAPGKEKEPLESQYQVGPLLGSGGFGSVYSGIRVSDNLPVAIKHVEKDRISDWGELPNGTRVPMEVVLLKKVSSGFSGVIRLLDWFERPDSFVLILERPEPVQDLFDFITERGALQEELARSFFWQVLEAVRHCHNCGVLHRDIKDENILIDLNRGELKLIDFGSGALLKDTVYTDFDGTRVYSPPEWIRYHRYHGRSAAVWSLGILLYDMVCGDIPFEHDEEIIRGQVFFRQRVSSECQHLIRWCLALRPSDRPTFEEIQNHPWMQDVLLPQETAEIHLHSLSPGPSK
MEKK1 (Mitogen-activated protein kinase kinase kinase 1), sequence (Q13233 whole entry): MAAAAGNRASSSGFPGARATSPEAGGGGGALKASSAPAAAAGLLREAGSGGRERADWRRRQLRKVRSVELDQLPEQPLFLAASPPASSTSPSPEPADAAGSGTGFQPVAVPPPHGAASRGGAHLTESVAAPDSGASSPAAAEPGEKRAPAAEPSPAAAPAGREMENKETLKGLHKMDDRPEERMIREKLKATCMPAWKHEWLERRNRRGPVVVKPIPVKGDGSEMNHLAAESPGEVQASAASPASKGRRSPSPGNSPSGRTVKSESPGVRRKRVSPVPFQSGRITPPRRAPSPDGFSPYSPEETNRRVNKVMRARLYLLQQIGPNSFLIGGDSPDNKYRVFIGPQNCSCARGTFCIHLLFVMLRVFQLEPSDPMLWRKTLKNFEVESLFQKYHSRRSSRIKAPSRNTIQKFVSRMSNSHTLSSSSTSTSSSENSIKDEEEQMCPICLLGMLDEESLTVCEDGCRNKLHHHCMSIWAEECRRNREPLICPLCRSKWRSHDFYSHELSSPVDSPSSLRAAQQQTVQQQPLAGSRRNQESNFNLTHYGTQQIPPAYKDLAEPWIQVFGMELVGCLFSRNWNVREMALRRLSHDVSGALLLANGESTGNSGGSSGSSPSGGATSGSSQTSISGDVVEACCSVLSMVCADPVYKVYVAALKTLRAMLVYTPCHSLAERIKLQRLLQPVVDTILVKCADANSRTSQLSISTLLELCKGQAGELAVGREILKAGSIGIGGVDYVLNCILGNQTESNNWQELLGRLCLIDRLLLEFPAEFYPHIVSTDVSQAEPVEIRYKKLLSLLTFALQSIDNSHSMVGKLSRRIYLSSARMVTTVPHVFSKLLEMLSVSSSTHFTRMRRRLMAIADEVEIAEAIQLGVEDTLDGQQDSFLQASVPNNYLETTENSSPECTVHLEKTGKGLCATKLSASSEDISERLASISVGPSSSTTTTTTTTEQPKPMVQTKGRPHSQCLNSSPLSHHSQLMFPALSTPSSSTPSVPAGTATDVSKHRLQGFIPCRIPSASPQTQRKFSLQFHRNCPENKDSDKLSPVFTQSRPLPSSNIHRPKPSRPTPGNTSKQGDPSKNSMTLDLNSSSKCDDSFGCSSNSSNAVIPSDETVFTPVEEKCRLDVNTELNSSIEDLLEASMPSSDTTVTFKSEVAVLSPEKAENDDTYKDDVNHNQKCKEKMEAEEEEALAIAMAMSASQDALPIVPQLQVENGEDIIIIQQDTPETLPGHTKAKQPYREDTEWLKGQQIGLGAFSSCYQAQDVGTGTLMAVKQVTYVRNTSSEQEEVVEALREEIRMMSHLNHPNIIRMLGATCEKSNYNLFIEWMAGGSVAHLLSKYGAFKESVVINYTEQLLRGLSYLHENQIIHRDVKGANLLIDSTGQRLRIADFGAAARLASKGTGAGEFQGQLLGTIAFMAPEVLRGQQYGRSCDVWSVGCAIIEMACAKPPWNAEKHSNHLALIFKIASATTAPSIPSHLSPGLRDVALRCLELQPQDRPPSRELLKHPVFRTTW
ERK1 (Mitogen-activated protein kinase 3), sequence (P27361 whole entry): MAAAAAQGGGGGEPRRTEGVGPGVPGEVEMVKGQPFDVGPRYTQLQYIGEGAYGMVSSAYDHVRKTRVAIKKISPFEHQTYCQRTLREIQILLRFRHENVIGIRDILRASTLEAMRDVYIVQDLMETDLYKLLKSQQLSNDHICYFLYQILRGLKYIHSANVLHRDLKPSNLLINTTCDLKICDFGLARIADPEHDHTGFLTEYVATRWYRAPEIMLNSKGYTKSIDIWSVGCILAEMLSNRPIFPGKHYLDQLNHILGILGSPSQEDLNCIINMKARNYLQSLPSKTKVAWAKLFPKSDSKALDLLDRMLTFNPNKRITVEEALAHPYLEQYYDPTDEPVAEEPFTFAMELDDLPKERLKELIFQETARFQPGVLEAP
VEGFR1 (Vascular endothelial growth factor receptor 1), sequence (P17948 whole entry): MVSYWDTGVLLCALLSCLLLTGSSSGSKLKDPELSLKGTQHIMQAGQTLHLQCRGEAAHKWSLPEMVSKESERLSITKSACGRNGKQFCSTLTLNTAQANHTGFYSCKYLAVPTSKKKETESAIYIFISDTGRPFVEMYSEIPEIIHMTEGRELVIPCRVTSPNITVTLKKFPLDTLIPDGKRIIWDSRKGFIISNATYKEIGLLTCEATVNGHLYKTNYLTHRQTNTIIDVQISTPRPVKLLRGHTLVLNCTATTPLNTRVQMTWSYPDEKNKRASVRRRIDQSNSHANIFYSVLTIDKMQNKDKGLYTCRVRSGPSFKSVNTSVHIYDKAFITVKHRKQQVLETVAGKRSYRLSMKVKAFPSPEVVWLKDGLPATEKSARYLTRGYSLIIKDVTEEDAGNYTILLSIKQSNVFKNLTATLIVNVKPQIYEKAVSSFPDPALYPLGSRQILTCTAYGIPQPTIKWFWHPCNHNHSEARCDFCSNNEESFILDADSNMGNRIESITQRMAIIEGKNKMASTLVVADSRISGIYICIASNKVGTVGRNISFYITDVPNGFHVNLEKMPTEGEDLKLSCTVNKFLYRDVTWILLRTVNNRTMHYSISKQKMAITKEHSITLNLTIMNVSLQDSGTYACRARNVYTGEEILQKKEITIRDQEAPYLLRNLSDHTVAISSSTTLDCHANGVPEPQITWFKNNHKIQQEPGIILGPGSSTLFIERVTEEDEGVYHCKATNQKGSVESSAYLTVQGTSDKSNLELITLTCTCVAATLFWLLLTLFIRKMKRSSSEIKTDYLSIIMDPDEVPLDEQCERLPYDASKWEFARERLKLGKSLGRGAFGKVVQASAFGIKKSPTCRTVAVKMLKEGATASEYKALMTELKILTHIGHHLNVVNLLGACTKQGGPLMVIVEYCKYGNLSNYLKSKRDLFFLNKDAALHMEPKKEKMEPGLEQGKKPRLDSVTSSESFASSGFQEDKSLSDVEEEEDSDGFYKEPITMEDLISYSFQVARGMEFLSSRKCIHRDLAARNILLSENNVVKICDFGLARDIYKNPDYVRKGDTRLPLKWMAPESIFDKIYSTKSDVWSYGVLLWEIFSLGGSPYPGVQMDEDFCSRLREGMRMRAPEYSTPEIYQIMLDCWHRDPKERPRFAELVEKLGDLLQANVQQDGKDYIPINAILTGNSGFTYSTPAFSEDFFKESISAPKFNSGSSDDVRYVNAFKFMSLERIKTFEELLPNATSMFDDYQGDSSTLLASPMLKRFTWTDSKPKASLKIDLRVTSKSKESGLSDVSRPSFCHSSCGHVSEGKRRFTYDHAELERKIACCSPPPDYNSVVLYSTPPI
JNK1 (Mitogen-activated protein kinase 8), sequence (P45983 whole entry): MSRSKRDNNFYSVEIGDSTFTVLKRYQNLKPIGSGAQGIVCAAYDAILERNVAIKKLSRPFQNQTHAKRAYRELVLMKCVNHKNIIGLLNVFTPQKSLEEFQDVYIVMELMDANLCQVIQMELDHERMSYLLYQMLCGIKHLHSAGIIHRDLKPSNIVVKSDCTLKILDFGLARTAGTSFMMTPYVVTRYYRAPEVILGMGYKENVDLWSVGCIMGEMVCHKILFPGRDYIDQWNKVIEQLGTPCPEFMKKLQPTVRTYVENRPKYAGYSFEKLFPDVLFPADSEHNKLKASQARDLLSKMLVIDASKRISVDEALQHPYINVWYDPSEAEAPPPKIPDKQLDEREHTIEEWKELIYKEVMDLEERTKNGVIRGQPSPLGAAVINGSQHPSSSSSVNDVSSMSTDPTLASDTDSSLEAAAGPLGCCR

Row | SMILES | IC50 (Plasmodium falciparum) | selectivity ratio [2] | IC50 (HepG2) | further results
1 | CC(=O)c1ccc(NC(=O)Nc2ccc(N(C)c3ccnc(Nc4cccc(CS(C)(=O)=O)c4)n3)cc2)cc1 | 120 nM | – | – | cytotoxicity [1]: 86%
2 | Cc1c2ccc(Nc3ccnc(Nc4ccc(S(N)(=O)=O)cc4)n3)cc2nn1C | 13000 nM | > 1.9 | > 25 µM | –
3 | Cc1cnc(Nc2ccc(S(N)(=O)=O)cc2)nc1Nc1ccc2nc[nH]c2c1 | 3200 nM | 5.6 | 18 µM | –
4 | c1cc(Nc2nccc(Nc3ccc4cn[nH]c4c3)n2)cc(N2CCOCC2)c1 | 4200 nM | 3.8 | 16 µM | –
5 | NS(=O)(=O)c1cccc(Nc2nccc(Nc3ccc4nc[nH]c4c3)n2)c1 | 4200 nM | > 6 | > 25 µM | –
6 | Cc1ccc(Nc2nccc(Nc3ccc4cn[nH]c4c3)n2)cc1 | 2500 nM | 7.2 | 18 µM | –
7 | Cc1c2ccc(Nc3ccnc(Nc4cccc(S(N)(=O)=O)c4)n3)cc2nn1C | 10000 nM | 1.9 | 19 µM | –
8 | Cc1cc(Nc2nccc(Nc3ccc4nc[nH]c4c3)n2)ccc1N1CCN(C)CC1 | 420 nM | 36 | 15 µM | inhibition at 0.5 h, 1 µM [3]: 57.8%; inhibition at 0.5 h, 1 µM [4]: 108%; inhibition at 0.5 h, 1 µM [5]: 71%; logD at 6 h [6]: 2.9; inhibition at 0.5 h, 1 µM [7]: 44.4%; inhibition at 0.5 h, 1 µM (Aurora kinase A): 15.7%; inhibition at 0.5 h, 1 µM [8]: 35.4%; solubility [9]: 16 µM (≈ 6.63 µg/mL); inhibition at 0.5 h, 1 µM [10]: 2.9%; inhibition at 0.5 h, 1 µM [11]: 63.5%; inhibition at 0.5 h, 1 µM [12]: 57.3%; CLH [13]: 1.8 mL/min/g; Papp at 5 h, 10 µM [14]: 0.02 ×10⁻⁶ cm/s
9 | CN1CCN(c2cccc(Nc3nccc(Nc4ccc5nc[nH]c5c4)n3)c2)CC1 | 870 nM | 13 | 11 µM | –
10 | CN1CCN(c2cccc(Nc3nccc(Nc4ccc5cn[nH]c5c4)n3)c2)CC1 | 1100 nM | 6.1 | 6.7 µM | –
11 | c1cc(Nc2nccc(Nc3ccc4nc[nH]c4c3)n2)cc(N2CCOCC2)c1 | 2400 nM | 4 | 9.6 µM | –
12 | Cc1cccc(Nc2ncc(C)c(Nc3ccc4nc[nH]c4c3)n2)c1 | 770 nM | 8.6 | 6.6 µM | –
13 | c1cc(Nc2ccc3nc[nH]c3c2)nc(Nc2ccc(N3CCOCC3)cc2)n1 | 3200 nM | > 7.8 | > 25 µM | –
14 | Cc1cccc(Nc2ncc([N+](=O)[O-])c(Nc3ccc4nc[nH]c4c3)n2)c1 | 780 nM | 28 | 22 µM | inhibition at 0.5 h, 1 µM [3]: 54.9%; inhibition at 0.5 h, 1 µM [4]: 76.7%; inhibition at 0.5 h, 1 µM [5]: 69.8%; logD at 6 h [6]: 3.2; inhibition at 0.5 h, 1 µM [7]: 43.2%; inhibition at 0.5 h, 1 µM (Aurora kinase A): 15.6%; inhibition at 0.5 h, 1 µM [8]: 83.8%; solubility [9]: 1 µM (≈ 0.361 µg/mL); inhibition at 0.5 h, 1 µM [10]: 27.9%; inhibition at 0.5 h, 1 µM [11]: 91%; inhibition at 0.5 h, 1 µM [12]: 25.3%; CLH [13]: 19 mL/min/g; Papp at 5 h, 10 µM [14]: 3.8 ×10⁻⁶ cm/s
15 | CS(=O)(=O)Nc1cccc(Nc2nccc(Nc3ccc4nc[nH]c4c3)n2)c1 | 2800 nM | > 8.9 | > 25 µM | –
16 | c1cc(Nc2ccc3cn[nH]c3c2)nc(Nc2ccc(N3CCOCC3)cc2)n1 | 2200 nM | 3.6 | 8 µM | –
17 | Cc1cccc(Nc2ncc(Cl)c(Nc3ccc4nc[nH]c4c3)n2)c1 | 2000 nM | 3.7 | 7.4 µM | –

Row | SMILES | IC50 (Plasmodium falciparum) | selectivity ratio [2] | IC50 (HepG2) | further results
18 | NC(=O)c1ccc(Nc2nccc(Nc3ccc4cn[nH]c4c3)n2)cc1 | 5400 nM | 3 | 16 µM | –
19 | CN1CCN(c2ccc(Nc3nccc(Nc4ccc5nc[nH]c5c4)n3)cc2)CC1 | 660 nM | > 38 | > 25 µM | inhibition at 0.5 h, 1 µM [3]: 69.2%; inhibition at 0.5 h, 1 µM [4]: 89.3%; inhibition at 0.5 h, 1 µM [5]: 91.3%; logD at 6 h [6]: 2.3; inhibition at 0.5 h, 1 µM [7]: 47.9%; inhibition at 0.5 h, 1 µM (Aurora kinase A): 20.6%; inhibition at 0.5 h, 1 µM [8]: 41.6%; solubility [9]: 124 µM (≈ 49.7 µg/mL); inhibition at 0.5 h, 1 µM [10]: 7.9%; inhibition at 0.5 h, 1 µM [11]: 75.9%; inhibition at 0.5 h, 1 µM [12]: 85%; CLH [13]: 0.8 mL/min/g; Papp at 5 h, 10 µM [14]: 0.02 ×10⁻⁶ cm/s
20 | NS(=O)(=O)c1ccc(Nc2nccc(Nc3ccc4nc[nH]c4c3)n2)cc1 | 8200 nM | > 3 | > 25 µM | –
21 | Cc1cccc(Nc2nccc(Nc3ccc4cn[nH]c4c3)n2)c1 | 3600 nM | 4.2 | 15 µM | –
22 | CN1CCN(c2ccc(Nc3nccc(Nc4ccc5cn[nH]c5c4)n3)cc2)CC1 | 600 nM | 12 | 7 µM | –
23 | Cc1cccc(Nc2nccc(Nc3ccc4nc[nH]c4c3)n2)c1 | 980 nM | 20 | 20 µM | –
24 | NS(=O)(=O)c1ccc(Nc2ncc(Cl)c(Nc3ccc4nc[nH]c4c3)n2)cc1 | 2500 nM | 3.1 | 7.8 µM | –
25 | O=C(O)c1ccc(Nc2nccc(Nc3ccc4nc[nH]c4c3)n2)cc1 | 8200 nM | > 3 | > 25 µM | –
26 | Brc1ccc(Nc2nccc(Nc3ccc4cn[nH]c4c3)n2)cc1 | 1600 nM | 13 | 20 µM | –
27 | Brc1cccc(Nc2nccc(Nc3ccc4cn[nH]c4c3)n2)c1 | 2600 nM | 6.5 | 17 µM | –
28 | NS(=O)(=O)c1ccc(Nc2nccc(Nc3ccc4cn[nH]c4c3)n2)cc1 | 19000 nM | 1.2 | 22 µM | –
29 | Cc1ccc(Nc2nccc(Nc3ccc4nc[nH]c4c3)n2)cc1 | 1400 nM | > 18 | > 25 µM | –
30 | CN1CCN(c2ccc(Nc3ncc(C#N)c(Nc4ccccc4C(N)=O)n3)cc2)CC1 | 40 nM | – | – | cytotoxicity [1]: 43%
31 | O[C@@H](c1cc(C(F)(F)F)nc2c(C(F)(F)F)cccc12)[C@H]1CCCCN1 [(S,R)-MEFLOQUINE] | 14 nM | – | – | –
32 | C[C@H]1[C@@H](O)O[C@@H]2O[C@@]3(C)CC[C@H]4[C@H](C)CC[C@@H]1[C@@]24OO3 [ARTENIMOL] | 31 nM | – | – | –
33 | CCc1nc(N)nc(N)c1-c1ccc(Cl)cc1 [PYRIMETHAMINE] | 4 nM | – | – | –
